In patent US10934297B2, “5-heteroaryl substituted indazole-3-carboxamides and preparation and use thereof” (Samumed, LLC, priority 2018, dated 2021):

Legend:
[1] = tested on: Wnt activity (Sp5-Luc reporter in SW480 cells); assay: Screening assay for Wnt activity: Sp5-Luc reporter gene assay in SW480 colon carcinoma cells; assay type: cell-based, human; conditions: Homo sapiens, 36 to 48 hours
Text: The screening assay for Wnt activity is described as follows. Reporter cell lines can be generated by stably transducing cancer cell lines (e.g., colon cancer) or primary cells (e.g., IEC-6 intestinal cells) with a lentiviral construct that includes a Wnt-responsive promoter driving expression of the firefly luciferase gene.
SW480 colon carcinoma cells were transduced with a lentiviral vector expressing luciferase with a human Sp5 promoter consisting of a sequence of eight TCF/LEF binding sites. SW480 cells stably expressing the Sp5-Luc reporter gene and a hygromycin resistance gene were selected by treatment with 150 μg/mL of hygromycin for 7 days. These stably transduced SW480 cells were expanded in cell culture and used for all further screening activities. […] For Sp5-Luc reporter gene assays, the cells were plated at 4,000 cells/well in 384-well plates with a DMEM medium containing 1% fetal bovine serum, and 1% Penicillin-Streptomycin and incubated for 36 to 48 hours at 37° C. and 5% CO2. Following incubation, 15 μl of BriteLite Plus luminescence reagent (Perkin Elmer) was added to each well of the 384-well assay plates. The plates were placed on an orbital shaker for 2 min and then luminescence was quantified using the Envision (Perkin Elmer) plate reader. Readings were normalized to DMSO only treated cells, and normalized activities were utilized for EC50 calculations using the dose-response log (inhibitor) vs. response-variable slope (four parameters) nonlinear regression feature available in GraphPad Prism 5.0 (or Dotmatics).

DYRK1A kinase = DYRK1A kinase (Homo sapiens (Human), UniProt Q13627); assay: DYRK1A kinase assay (Ser/Thr 18 peptide Z-lyte FRET); assay type: biochemical; conditions: read-out: EC50 (method: IC50)
Experimental: Representative compounds were screened using the assay procedure for DYRK1A kinase activity as described below.
This is a non-radioactive assay using fluorescence resonance energy transfer (FRET) between coumarin and fluorescein to detect kinase activity which is represented as a ratio of coumarin emission/fluorescein emission.
The mixture was allowed to incubate with the representative compounds for one hour at room temperature. All reactions were performed in duplicate. Unphosphorylated (“0% Control”) and phosphorylated (“100% control”) forms of Ser/Thr 18 served as control reactions. Additionally, an 11-point dose-response curve of Staurosporine (1 uM top) was run to serve as a positive compound control.
After incubation, Development Reagent A was diluted in Development Buffer then added to the reaction and allowed to further incubate for one hour at room temperature.

GSK3β kinase = GSK3β kinase (Homo sapiens (Human), UniProt P49841); assay: GSK3β kinase assay (Ser/Thr 09 peptide Z-lyte FRET); assay type: biochemical; conditions: read-out: EC50 (method: IC50)
Chain of GSK3β kinase (P49841 whole entry): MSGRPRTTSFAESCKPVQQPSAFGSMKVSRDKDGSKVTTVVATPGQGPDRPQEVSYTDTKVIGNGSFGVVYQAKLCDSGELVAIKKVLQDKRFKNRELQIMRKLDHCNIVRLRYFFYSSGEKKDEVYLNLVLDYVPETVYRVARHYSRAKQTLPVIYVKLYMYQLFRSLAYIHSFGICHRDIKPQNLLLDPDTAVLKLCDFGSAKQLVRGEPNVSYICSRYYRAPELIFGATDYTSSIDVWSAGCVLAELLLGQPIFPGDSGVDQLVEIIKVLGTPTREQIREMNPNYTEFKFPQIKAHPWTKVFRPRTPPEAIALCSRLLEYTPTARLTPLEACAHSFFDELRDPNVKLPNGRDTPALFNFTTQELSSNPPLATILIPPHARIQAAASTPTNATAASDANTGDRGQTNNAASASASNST
Experimental: Representative compounds were screened using the assay procedure for GSK3β kinase activity as described below.
This is a non-radioactive assay using fluorescence resonance energy transfer (FRET) between coumarin and fluorescein to detect kinase activity which is represented as ratio of coumarin emission/fluorescein emission.
The mixture is allowed to incubate with the representative compounds for one hour at room temperature. All reactions were performed in duplicate. Unphosphorylated (“0% Control”) and phosphorylated (“100% control”) forms of Ser/Thr 18 serve as control reactions.
After incubation, diluted Development Buffer is added to the reaction and allowed to further incubate for one hour at room temperature.
Dose-response curves are generated and inhibitory concentration (IC50) values are calculated using non-linear regression curve fit in the Dotmatics' Studies Software (Bishops Stortford, UK).

[2] = tested on: SW480 colon carcinoma cells; assay: Cell viability assay (CellTiter-Glo) in SW480 colon carcinoma cells; assay type: cell-based, human; conditions: Homo sapiens, 96 h, four days
Experimental: Representative compounds were screened using the assay procedure to assess the effect on cell viability as described below.
SW480 colon carcinoma cells were transduced with a lentiviral vector expressing luciferase with a human Sp5 promoter consisting of a sequence of eight TCF/LEF binding sites. SW480 cells stably expressing the Sp5-Luc reporter gene and a hygromycin resistance gene were selected by treatment with 150 μg/mL of hygromycin for 7 days. These stably transduced SW480 cells were expanded in cell culture and used for all further screening activities.
For the Cell Viability Assays, the cells were plated at 2,000 cells/well in 384-well plates with a DMEM medium containing 1% fetal bovine serum, and 1% Penicillin-Streptomycin and incubated for […] at 37° C. and 5% CO2. Eight replicates of DMSO-treated cells served as controls and cells treated with compound were performed in duplicate.
After incubation, 10 μL of CellTiter-Glo (Promega) was added to each well allowed to incubate for approximately 12 minutes. This reagent “results in cell lysis and generation of a luminescent signal proportional to the amount of ATP present. The amount of ATP is directly proportional to the number of cells present in culture, in agreement with previous reports. The CellTiter-Glo® Assay generates a “glow-type” luminescent signal, produced by the luciferase reaction (Promega.com)”.

[3] = tested on: primary human fibroblasts derived from IPF patients (LL29 cells); assay: Inhibition of the fibrotic process: αSMA staining in TGF-β1 treated LL29 fibroblasts; assay type: cell-based; conditions: Homo sapiens, Fibroblast, 96 h; LL29 cells, TGF-β1 20 ng/mL, 4 days, % αSMA positive cells
Experimental: Representative compounds were screened using primary human fibroblasts (derived from IPF patients) treated with TGF-β1 to determine their ability to inhibit the fibrotic process.
LL29 cells were plated at 1,500 cells/well in 70 μL/well F12 medium supplemented with 1% Fetal Bovine Serum. […] Wells treated with TGF-β1 and containing DMSO were used as positive control, and cells with only DMSO were negative control. […] Following incubation for 4 days, SYTOX green nucleic acid stain (Life Technologies [Thermo Fisher Scientific]) was added to the wells at a final concentration of 1 μM and incubated at room temperature for 30 min.

IL-6 = IL-6 inhibition in LPS-stimulated human peripheral blood mononuclear cells (HTRF); assay type: cell-based; conditions: Homo sapiens, PBMC; for EC50: huPBMCs, LPS 50 ng/mL, 22 hours, IL-6 HTRF; for inhibition at 10 µM: read-out: percent inhibition at 10 μM
Experimental: Fresh Normal PB MNC (Catalog #PB001, AllCells, Alameda, Calif.) were shipped overnight at 4° C. and resuspended in Roswell Park Memorial Institute (RPMI) 1640 Medium, with GlutaMAX Supplement (Catalog #61870127, ThermoFisher Scientific, Waltham, Mass.) supplemented with 1% Penicillin-Streptomycin (Catalog #15140163. ThermoFisher Scientific, Waltham, Mass.) and 1% fetal bovine serum (FBS) (Catalog #16140089, ThermoFisher Scientific, Waltham, Mass.) assay media. Fresh normal human peripheral blood mononuclear cells (huPBMCs) were resuspended in 1% FBS-RPMI assay media with 1% Penicillin-Streptomycin 1% to a cell concentration of 1×10e6 cells/mL. […] 50 ng/mL of Lipopolysaccharides from Escherichia coli 0111:B4 (Catalog #L5293-2ML, Sigma-Aldrich, St. Louis, Mo.) was added after 2 hours and cells were incubated for another 22 hours at 37° C.-5% CO2. After 22 hour incubation, a mixture of anti-IL6 XL665 and anti-IL-6 Cryptate diluted in reconstitution buffer (Catalog #62IL6PEC, Cisbio Inc., Bedford, Mass.) was added to each well. Following incubation for 3 hours at room temperature, Homogeneous Time-Resolved Fluorescence (HTRF) was measured using the Envision (Perkin Elmer, Shelton, Conn.) at 665 nm and […]. The ratio of fluorescence at 665 nm to 620 nm was used as a readout for IL-6 quantification. All samples were processed in duplicate. Readings were normalized to DMSO treated cells and normalized activities were utilized for EC50 calculations.

| EC50 [1] | IC50 (DYRK1A kinase) | IC50 (GSK3β kinase) | EC50 [2] | EC50 (IL-6) | Compound | EC50 [3] | inhibition at 10 µM (IL-6) |
| --- | --- | --- | --- | --- | --- | --- | --- |
| > 10000 nM | 13 nM | 21 nM | > 10000 nM | > 10000 nM | Cc1c(-c2ccc3[nH]nc(C(=O)NC4CCC(F)(F)CC4)c3c2)cnn1C [Compound 20, N-(4,4-Difluorocyclohexyl)-5-(1,5-dimethyl-1H-pyrazol-4-yl)-1H-indazole-3-carboxamide] | 3410 nM | 36.4% |
| 2170 nM | 305 nM | 878 nM | > 10000 nM | > 10000 nM | Cn1cc(-c2ccc3[nH]nc(C(=O)Nc4ccc(CN5CCCC5)cc4O)c3c2)cn1 [Compound 74, N-(2-Hydroxy-4-(pyrrolidin-1-ylmethyl)phenyl)-5-(1-methyl-1H-pyrazol-4-yl)-1H-indazole-3-carboxamide] | 35 nM | 22.1% |
| 165 nM | 1 nM | 30 nM | 118 nM | 1210 nM | CN1CCC(Oc2ccc(NC(=O)c3n[nH]c4cc(F)c(-c5cnn(C)c5)cc34)cn2)CC1 [Compound 96, 6-Fluoro-5-(1-methyl-1H-pyrazol-4-yl)-N-(6-((1-methylpiperidin-4-yl)oxy)pyridin-3-yl)-1H-indazole-3-carboxamide] | 367 nM |  |
| 3880 nM | 22 nM | 33 nM | 1310 nM | 1260 nM | CCn1cc(-c2ccc3[nH]nc(C(=O)NC4CCN(CC(C)(C)F)CC4)c3c2)cn1 [Compound 39, 5-(1-Ethyl-1H-pyrazol-4-yl)-N-(1-(2-fluoro-2-methylpropyl)piperidin-4-yl)-1H-indazole-3-carboxamide] | 272 nM |  |
| 1830 nM | 5 nM | 31 nM | 1320 nM | 1270 nM | CC(C)CN1CC[C@@H](NC(=O)c2n[nH]c3ccc(-c4cnn(C)c4)cc23)[C@H](F)C1 [Compound 32, N-((3R,4R)-3-Fluoro-1-isobutylpiperidin-4-yl)-5-(1-methyl-1H-pyrazol-4-yl)-1H-indazole-3-carboxamide] | 372 nM |  |

Further lines, the molecule ahead of its results:

| Compound | EC50 [1] | IC50 (DYRK1A kinase) | IC50 (GSK3β kinase) | EC50 [2] | EC50 (IL-6) | EC50 [3] | inhibition at 10 µM (IL-6) |
| --- | --- | --- | --- | --- | --- | --- | --- |
| Cn1cc(-c2ccc3[nH]nc(C(=O)N[C@H]4CC[C@H](CN5CC(F)C5)CC4)c3c2)cn1 [Compound 23, N-((1R,4R)-4-((3-Fluoroazetidin-1-yl)methyl)cyclohexyl)-5-(1-methyl-1H-pyrazol-4-yl)-1H-indazole-3-carboxamide] | 768 nM | 1 nM | 5 nM | 409 nM | 345 nM | 149 nM |  |
| CN1CCN(c2ccc(NC(=O)c3n[nH]c4cc(F)c(-c5cnn(C)c5)cc34)cc2)CC1 [Compound 66, 6-Fluoro-5-(1-methyl-1H-pyrazol-4-yl)-N-(4-(4-methylpiperazin-1-yl)phenyl)-1H-indazole-3-carboxamide] | 953 nM | 2 nM | 65 nM | 759 nM | 1280 nM | 650 nM |  |
| CN1CCC(c2ccc(NC(=O)c3n[nH]c4cc(F)c(-c5cnn(C)c5)cc34)cc2)CC1 [Compound 65, 6-Fluoro-5-(1-methyl-1H-pyrazol-4-yl)-N-(4-(1-methylpiperidin-4-yl)phenyl)-1H-indazole-3-carboxamide] | 805 nM | 4 nM | 44 nM | 1100 nM | 3180 nM | 620 nM |  |
| CN1CCC(n2cc(-c3cc4c(C(=O)Nc5ccc(OC(F)F)cc5)n[nH]c4cc3F)cn2)CC1 [Compound 59, N-(4-(Difluoromethoxy)phenyl)-6-fluoro-5-(1-(1-methylpiperidin-4-yl)-1H-pyrazol-4-yl)-1H-indazole-3-carboxamide] | 555 nM | 28 nM | 1290 nM | 327 nM | 2590 nM | 2540 nM |  |
| O=C(Nc1ccc(OC(F)F)nc1)c1n[nH]c2ccc(-c3cnn(C4CNC4)c3)cc12 [Compound 86, 5-(1-(Azetidin-3-yl)-1H-pyrazol-4-yl)-N-(6-(difluoromethoxy)pyridin-3-yl)-1H-indazole-3-carboxamide] | 1840 nM | 98 nM | 354 nM | > 10000 nM | > 10000 nM | 1190 nM | 14.8% |
| Cn1cc(-c2cc(F)c3[nH]nc(C(=O)NCCC(F)(F)F)c3c2)cn1 [Compound 6, 7-Fluoro-5-(1-methyl-1H-pyrazol-4-yl)-N-(3,3,3-trifluoropropyl)-1H-indazole-3-carboxamide] | 325 nM | 207 nM | 15 nM | 737 nM | > 10000 nM | 148 nM | 37.8% |
| O=C(N[C@@H]1CCCC[C@H]1F)c1n[nH]c2ccc(-c3cnn(C4CC4)c3)cc12 [Compound 12, 5-(1-Cyclopropyl-1H-pyrazol-4-yl)-N-((1R,2R)-2-fluorocyclohexyl)-1H-indazole-3-carboxamide] | 5470 nM | 171 nM | 38 nM | 2260 nM | 1160 nM | 621 nM |  |
